{
  "source": "ChEMBL document CHEMBL6092191",
  "about": "“Advancing Cancer Immunotherapy through Engineering New PD-L1 Degraders: A Comprehensive Study from Small Molecules to PD-L1-Specific Peptide-Drug Conjugates” (J Med Chem, 2024)",
  "key": {"[1]": {"tested_on": "NCI-H460", "test": "Effect on PD-L1 mRNA level in human NCI-H460 cells at 10 uM incubated for 24 hrs by qRT-PCR analysis", "format": "functional, cell-based"}, "[2]": {"target": "COP9 signalosome complex subunit 5 (Homo sapiens) (UniProt Q92905)", "sequence (Q92905 2-334 limits assumed, one chain of several)": "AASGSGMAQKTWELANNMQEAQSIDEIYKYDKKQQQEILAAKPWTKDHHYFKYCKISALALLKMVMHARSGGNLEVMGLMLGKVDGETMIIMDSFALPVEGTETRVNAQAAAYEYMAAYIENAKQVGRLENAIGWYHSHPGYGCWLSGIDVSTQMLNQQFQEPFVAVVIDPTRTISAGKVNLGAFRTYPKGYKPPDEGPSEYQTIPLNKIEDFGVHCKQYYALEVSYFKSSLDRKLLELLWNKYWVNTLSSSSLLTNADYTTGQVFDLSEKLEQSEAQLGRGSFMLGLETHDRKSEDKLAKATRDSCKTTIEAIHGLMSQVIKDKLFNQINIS", "test": "Induction of PD-L1 degradation in […] cells at 10 uM by Western blot analysis", "format": "cell-based", "settings": "Lewis lung carcinoma cell line, time <= 36.0 hrs"}, "[3]": {"target": "COP9 signalosome complex subunit 5 (Homo sapiens) (UniProt Q92905)", "test": "Induction of IFN-gamma-induced PD-L1 degradation in human NCI-H1299 cells at 10 uM incubated for 24 hrs by Western blot analysis", "format": "cell-based"}, "[4]": {"tested_on": "Lewis lung carcinoma cell line", "test": "Anticancer activity against Lewis lung carcinoma cells xenografted in C57BL/6 mouse model assessed as tumor growth inhibition at 10 mg/kg, ip administered daily for 10 days", "format": "functional, organism-based", "settings": "time 10.0 day"}, "[5]": {"tested_on": "Mus musculus", "test": "In vivo induction of PD-L1 degradation in […] lung carcinoma cells xenografted in C57BL/6 mouse model at 10 mg/kg, ip administered daily for 10 days by IHC analysis", "format": "functional, organism-based", "settings": "time 10.0 day"}, "[6]": {"tested_on": "Lewis lung carcinoma cell line", "test": "Anticancer activity against Lewis lung carcinoma cells xenografted in C57BL/6 mouse model assessed as decrease in Ki-67 level at 10 mg/kg, ip administered daily for 10 days by IHC analysis", "format": "functional, organism-based", "settings": "time 10.0 day"}, "[7]": {"tested_on": "Lewis lung carcinoma cell line", "test": "Antitumor T-cell immune response in Lewis lung carcinoma cells xenografted in C57BL/6 mouse model assessed as increase in ratio of CD8+ to CD4+ T cells in tumor at 10 mg/kg, ip administered daily for 10 days by flow cytometry", "format": "functional, organism-based", "settings": "time 10.0 day"}, "[8]": {"test": "Toxicity in C57BL/6 mouse model xenografted with […] cells assessed as obvious damage in heart at 10 mg/kg, ip administered daily for 10 days by H and E staining based analysis", "format": "organism-based", "settings": "in vivo, 240 h, time 10 day"}, "[9]": {"test": "Toxicity in C57BL/6 mouse model xenografted with […] cells assessed as obvious damage in kidney at 10 mg/kg, ip administered daily for 10 days by H and E staining based analysis", "format": "organism-based", "settings": "in vivo, 240 h, time 10 day"}, "[10]": {"test": "Toxicity in C57BL/6 mouse model xenografted with […] cells assessed as change in AST level at 10 mg/kg, ip administered daily for 10 days", "format": "organism-based, Blood", "settings": "in vivo, 240 h, time 10 day"}, "[11]": {"test": "Toxicity in C57BL/6 mouse model xenografted with […] cells assessed as change in serum creatinine level at 10 mg/kg, ip administered daily for 10 days", "format": "organism-based", "settings": "in vivo, 240 h, time 10 day"}, "[12]": {"tested_on": "PC-9", "test": "Effect on PD-L1 mRNA level in human PC-9 cells at 10 uM incubated for 24 hrs by qRT-PCR analysis", "format": "functional, cell-based"}, "[13]": {"tested_on": "Lewis lung carcinoma", "test": "Effect on PD-L1 mRNA level in Lewis lung carcinoma cells at 10 uM incubated for 24 hrs by qRT-PCR analysis", "format": "functional, cell-based", "settings": "Mus musculus"}, "[14]": {"tested_on": "NCI-H1299", "test": "Effect on IFN-gamma-induced PD-L1 mRNA expression in human NCI-H1299 cells at 10 uM by qRT-PCR analysis", "format": "functional, cell-based"}, "[15]": {"target": "COP9 signalosome complex subunit 5 (Homo sapiens) (UniProt Q92905)", "test": "Binding affinity to CSN5 in HEK293T cell lysate by Western blot analysis", "format": "subcellular"}, "[16]": {"target": "COP9 signalosome complex subunit 5 (Homo sapiens) (UniProt Q92905)", "test": "Binding affinity to CSN5 in NCI-H460 cell lysate by Western blot analysis", "format": "subcellular"}, "[17]": {"target": "COP9 signalosome complex subunit 5 (Homo sapiens) (UniProt Q92905)", "test": "Induction of PD-L1 degradation in human NCI-H460 cells overexpressing CSN5 by Western blot analysis", "format": "cell-based"}},
  "note": "Active and inactive are the calls of the source. The calls are words filed in the database; no cut-off is given here.",
  "data": [
    {"smiles": "COc1cc2c(cc1OC)-c1cc3ccc(OC)c(OCCN)c3c[n+]1CC2.[Cl-]", "values": [
      {"measurement": "Activity", "setting": "[1]", "result": "inactive"},
      {"measurement": "Activity", "setting": "[2]", "result": "Time-dependent-effect"},
      {"measurement": "Activity", "setting": "[3]", "result": "Active"},
      {"measurement": "Activity", "setting": "[4]", "result": "Active"},
      {"measurement": "Activity", "setting": "[5]", "result": "Active"},
      {"measurement": "Activity", "setting": "[6]", "result": "Active"},
      {"measurement": "Activity", "setting": "[7]", "result": "Active; Highest Enhancement Of Ratio Observed"},
      {"measurement": "Activity", "setting": "[8]", "result": "Non-toxic"},
      {"measurement": "Activity", "setting": "[9]", "result": "Non-toxic"},
      {"measurement": "Activity", "setting": "[10]", "result": "Non-toxic"},
      {"measurement": "Activity", "setting": "[11]", "result": "Non-toxic"},
      {"measurement": "Activity", "setting": "[12]", "result": "inactive"},
      {"measurement": "Activity", "setting": "[13]", "result": "inactive"},
      {"measurement": "Activity", "setting": "[14]", "result": "inactive"},
      {"measurement": "Activity", "setting": "[15]", "result": "Active"},
      {"measurement": "Activity", "setting": "[16]", "result": "Active"},
      {"measurement": "Activity", "setting": "[17]", "result": "inactive"}
    ]}
  ]
}
